Assay results published in patent US20180228799A1, “Treatment for Neurological and Mental Disorders” (PSYCHOGENICS, INC., priority 2008, published 2018).
Entries after “also recorded” stand apart in the source; their conditions may differ.

Columns and labels:
rats = assay: Radial arm maze, scopolamine-induced working memory deficit; assay type: in vivo; settings: eltoprazine 0.3 mg/kg PO + scopolamine 0.5 mg/kg IP, ANOVA, FIG. 2
Experimental: Several mazes, such as the radial arm maze (RAM) have been adapted to assess working memory in rodents. The RAM consists of eight long runways radiating out in a circle from a central compartment. In the RAM rats learn to retrieve food rewards from all or a sub-set of the arms. Working memory is assessed by measuring entries into previously baited arms within a given trial. […] Hippocampal lesions produce deficits both in adults and in the neonatal hippocampal lesion model of schizophrenia.
For training, food deprived rats were placed in an enclosed cylinder in the center of the maze for 20 s, prior to being allowed to explore the maze by removing the cylinder. Each radial arm is baited with a food reward. Animals were given a maximum of 5 minutes to retrieve all food rewards. This training continued once daily for three weeks until animals met the performance criteria for successful acquisition of the task.
Four parameters were recorded to assess the performance of the rat: (1) the number of errors, which is defined as entering an arm that had already been entered, (2) the number of consecutive entries into un-visited arms before the first error occurred (entries to repeat), (3) latency to complete the task, and (4) the total number of arm entries before all food in the eight arms is collected or the maximum session duration is reached. […]

5-HT1 = settings: selective with respect to all receptors other than 5-HT1; cited from earlier work
5-HT1A/1B receptor = settings: cited from earlier work
[1] = test system: prefrontal cortex (PFC) of C57 mice; assay: Microdialysis in the prefrontal cortex; assay type: in vivo; settings: 3, 10 and 30 mg/kg, six mice per dose group
Experimental: Microdialysis probes were implanted in the prefrontal cortex; coordinates were: AP+2.0 mm, ML+0.7 mm (under an 8° angle) from bregma, DV −3.3 mm from the dura, with the tooth-bar also set at 0 mm. The active dialysis surface length of the membrane was 2 mm. Microdialysis experiments started 48 h (prefrontal cortex) after surgery. Ringer solution was perfused through the microdialysis probe at a flow at 1.166 μl/min using a high precision pump (KdScientific 220). Mouse dual channel swivels (Type 375/D/22QM, Instech Laboratories, Inc.) connected to PEEK-tubing (ID 0.005,″ OD 0.020″) were used to allow unrestrained movements of the mice. Samples were collected by hand 2.5 h after the start of the dialysis probe perfusion to obtain stable baseline values for the monoamines and their metabolites. The average of the first four samples was calculated and represents the baseline level. Samples were collected every 30 min were analyzed by HPLC with electrochemical detection.
Six mice per dose group were treated with vehicle or eltoprazine at 3 mg/kg, 10 mg/kg and 30 mg/kg.

5-HT1A = target: T1, 5-HT1A (Homo sapiens, UniProt P08908); settings: Schipper et al.; cited from earlier work
T1 sequence (P08908 1-422): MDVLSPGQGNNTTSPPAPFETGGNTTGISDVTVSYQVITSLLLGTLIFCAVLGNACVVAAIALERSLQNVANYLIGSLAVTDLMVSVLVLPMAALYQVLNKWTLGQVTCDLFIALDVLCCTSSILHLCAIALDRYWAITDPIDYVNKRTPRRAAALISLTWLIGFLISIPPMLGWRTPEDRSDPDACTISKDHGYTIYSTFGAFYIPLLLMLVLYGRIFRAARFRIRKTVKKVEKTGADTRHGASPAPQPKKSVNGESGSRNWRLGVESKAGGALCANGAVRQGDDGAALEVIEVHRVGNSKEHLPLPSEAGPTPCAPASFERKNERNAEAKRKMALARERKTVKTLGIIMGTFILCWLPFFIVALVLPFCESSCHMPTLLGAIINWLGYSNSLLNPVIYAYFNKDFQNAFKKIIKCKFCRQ

5-HT1D receptor = settings: compared with serotonin; Schipper et al.; cited from earlier work
[2] = test system: symptoms of ADHD in adults; assay: Continuous Performance Test (CPT), same trial; assay type: in vivo, human; settings: 5 or 10 mg/day, 14 days
Experimental: This double-blind, multiple-dose, placebo-controlled, crossover study was conducted to assess the effects of 14 days of oral eltoprazine treatment in 48 adults with ADHD. Subjects eligible for study enrollment were to have met Diagnostic and Statistical Manual of Mental Disorders, Fourth Edition, Text Revision (DSM-IV-TR) criteria for ADHD. Assessment was to be made by clinical history, a Structured Clinical Interview for DSM-IV Axis Disorders-Research Version (SCID-RV), and a Conners' Adult ADHD Diagnostic Interview for DSM IV (CAADID).
Oral doses of eltoprazine hydrochloride were 5 mg/day or 10 mg/day for 14 consecutive days (i.e., 2.5 or 5 mg twice daily (bid), respectively). Eltoprazine hydrochloride was administered in gelatin capsules with calcium hydrogen phosphate, 2H2O, maize starch NF, polyethylene glycol 6000 NF and magnesium stearate NF as excipients.
Secondary endpoints were evaluated with the Clinical Global Impressions-Improvement (CGI-I) and Continuous Performance Test. (CPT). The CGI-I test is used to determine the […] of improvement.

Q: With `c1cc2c(c(N3CCNCC3)c1)OCCO2` [Eltoprazine, 1-(2,3-dihydro-1,4-benzodioxanyl-5-yl) piperazine] as the compound, how does the “Effect on scopolamine-induced decrease of entries to repeat” value (rats) read?
A: Its value is “attenuated”.

Q: What about the Binding selectivity (5-HT1) of the same compound?
A: The Binding selectivity was “selective 5-HT1 ligand”.

Q: And the “Functional mode of action” value (5-HT1A/1B receptor)?
A: The value was “mixed 5-HT1A/1B receptor agonist”.

Q: And the “Release of dopamine in the PFC” value ([1]; FIG. 4)?
A: The value was “significant release; also recorded: dose-related increase”.

Q: And the “Release of the dopamine metabolite DOPAC in the PFC” value ([1]; FIG. 5)?
A: The value was “dose-related increase”.

Q: And the “Release of the metabolite HVA in the PFC” value ([1]; FIG. 6)?
A: The value was “dose-related increase”.

Q: And the “Release of norepinephrine in the PFC” value ([1]; FIG. 7)?
A: The value was “significant release; also recorded: dose-related increase”.

Q: And the “Binding affinity for 5-HT1A” value (5-HT1A)?
A: The value was “roughly equipotent affinity”.

Q: And the “Binding affinity for the 5-HT1D receptor” value (5-HT1D receptor)?
A: Its value is “relatively low affinity”.

Q: What about the CPT findings [2] of the same compound?
A: Its CPT findings is “did not result in any statistically significant findings”.
